Measurements: PubChem BioAssay (NCI)
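All cell lines were grown in 96-well plates and treated with compound for 48 hours. The concentration for 50% growth inhibition is given as GI50. TGI is the concentration that stops growth completely.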

How the values were obtained:
Test in all cases: NCI-60 cell line screen, 48 h
OVCAR-5 ovarian = tested on: OVCAR-5 ovarian
HCT-15 colon = tested on: HCT-15 colon
OVCAR-4 ovarian = tested on: OVCAR-4 ovarian
T-47D breast = tested on: T-47D breast
CCRF-CEM leukemia = tested on: CCRF-CEM leukemia
SK-MEL-28 melanoma = tested on: SK-MEL-28 melanoma
RPMI-8226 leukemia = tested on: RPMI-8226 leukemia
A498 renal = tested on: A498 renal
HS 578T breast = tested on: HS 578T breast
HCC-2998 colon = tested on: HCC-2998 colon
NCI/ADR-RES ovarian = tested on: NCI/ADR-RES ovarian
MALME-3M melanoma = tested on: MALME-3M melanoma
OVCAR-8 ovarian = tested on: OVCAR-8 ovarian
U251 CNS = tested on: U251 CNS
SF-539 CNS = tested on: SF-539 CNS
DU-145 prostate = tested on: DU-145 prostate
SF-295 CNS = tested on: SF-295 CNS
SNB-19 CNS = tested on: SNB-19 CNS
A549 NSCLC = tested on: A549 NSCLC
SF-268 CNS = tested on: SF-268 CNS
MDA-MB-231 breast = tested on: MDA-MB-231 breast
NCI-H460 lung = tested on: NCI-H460 lung
UACC-257 melanoma = tested on: UACC-257 melanoma
KM12 colon = tested on: KM12 colon
TK-10 renal = tested on: TK-10 renal
IGROV1 ovarian = tested on: IGROV1 ovarian
HOP-92 NSCLC = tested on: HOP-92 NSCLC
786-0 renal = tested on: 786-0 renal
UO-31 renal = tested on: UO-31 renal
SK-MEL-5 melanoma = tested on: SK-MEL-5 melanoma
SK-OV-3 ovarian = tested on: SK-OV-3 ovarian
NCI-H226 lung = tested on: NCI-H226 lung
NCI-H522 lung = tested on: NCI-H522 lung
ACHN renal = tested on: ACHN renal
HL-60(TB) leukemia = tested on: HL-60(TB) leukemia
MDA-MB-435 = tested on: MDA-MB-435
SR leukemia = tested on: SR leukemia
SN12C renal = tested on: SN12C renal
HOP-62 NSCLC = tested on: HOP-62 NSCLC
LOX IMVI melanoma = tested on: LOX IMVI melanoma
SW-620 colon = tested on: SW-620 colon
BT-549 breast = tested on: BT-549 breast
SNB-75 CNS = tested on: SNB-75 CNS
CAKI-1 renal = tested on: CAKI-1 renal
SK-MEL-2 melanoma = tested on: SK-MEL-2 melanoma
K-562 leukemia = tested on: K-562 leukemia
EKVX NSCLC = tested on: EKVX NSCLC
RXF 393 renal = tested on: RXF 393 renal
UACC-62 melanoma = tested on: UACC-62 melanoma
COLO 205 colon = tested on: COLO 205 colon
MCF7 breast = tested on: MCF7 breast
HT29 colon = tested on: HT29 colon
M14 melanoma = tested on: M14 melanoma
MOLT-4 leukemia = tested on: MOLT-4 leukemia
NCI-H23 lung = tested on: NCI-H23 lung
PC-3 prostate = tested on: PC-3 prostate
OVCAR-3 ovarian = tested on: OVCAR-3 ovarian

## Cc1[nH]nc2ncc(C#Cc3cncc(C(=O)Nc4ccc(CN5CCN(C)CC5)c(C(F)(F)F)c4)c3)cc12
OVCAR-5 ovarian
  GI50: 418 nM
HCT-15 colon
  GI50: 288 nM
  TGI: 4040 nM
OVCAR-4 ovarian
  GI50: 582 nM
T-47D breast
  GI50: 508 nM
  TGI: > 61900 nM
CCRF-CEM leukemia
  GI50: 293 nM
  TGI: > 27500 nM
SK-MEL-28 melanoma
  GI50: 212 nM
  TGI: 3740 nM
RPMI-8226 leukemia
  GI50: 426 nM
A498 renal
  GI50: 218 nM
  TGI: 1240 nM
HS 578T breast
  GI50: 87.2 nM
  TGI: 929 nM
HCC-2998 colon
  GI50: 488 nM
NCI/ADR-RES ovarian
  GI50: 5770 nM
  TGI: > 25300 nM
MALME-3M melanoma
  GI50: 65.4 nM
  TGI: 304 nM
OVCAR-8 ovarian
  GI50: 413 nM
U251 CNS
  GI50: 460 nM
  TGI: 28100 nM
SF-539 CNS
  GI50: 158 nM
  TGI: 1080 nM
DU-145 prostate
  GI50: 152 nM
SF-295 CNS
  GI50: 286 nM
SNB-19 CNS
  GI50: 1030 nM
  TGI: 13200 nM
A549 NSCLC
  GI50: 453 nM
  TGI: > 100000 nM
SF-268 CNS
  GI50: 289 nM
MDA-MB-231 breast
  GI50: 78.9 nM
  TGI: 737 nM
NCI-H460 lung
  GI50: 147 nM
  TGI: 4640 nM
UACC-257 melanoma
  GI50: 317 nM
KM12 colon
  GI50: < 11.6 nM
TK-10 renal
  GI50: 441 nM
IGROV1 ovarian
  GI50: 58.2 nM
  TGI: 1730 nM
HOP-92 NSCLC
  GI50: 123 nM
  TGI: 808 nM
786-0 renal
  GI50: 173 nM
  TGI: 1790 nM
UO-31 renal
  GI50: 326 nM
  TGI: 1980 nM
SK-MEL-5 melanoma
  GI50: 308 nM
  TGI: 12500 nM
SK-OV-3 ovarian
  GI50: 174 nM
  TGI: > 51800 nM
NCI-H226 lung
  GI50: 124 nM
  TGI: 953 nM
NCI-H522 lung
  GI50: 124 nM
  TGI: 4730 nM
ACHN renal
  GI50: 126 nM
HL-60(TB) leukemia
  GI50: 280 nM
  TGI: 16900 nM
MDA-MB-435
  GI50: 242 nM
  TGI: 21100 nM
SR leukemia
  GI50: 140 nM
SN12C renal
  GI50: 299 nM
  TGI: 11200 nM
HOP-62 NSCLC
  GI50: 366 nM
  TGI: 8820 nM
LOX IMVI melanoma
  GI50: 155 nM
  TGI: 993 nM
SW-620 colon
  GI50: 183 nM
  TGI: 4380 nM
BT-549 breast
  GI50: 301 nM
  TGI: 7250 nM
SNB-75 CNS
  GI50: 491 nM
  TGI: 13600 nM
CAKI-1 renal
  GI50: 64.7 nM
  TGI: 994 nM
SK-MEL-2 melanoma
  GI50: 85.2 nM
  TGI: 352 nM
K-562 leukemia
  TGI: 2030 nM
EKVX NSCLC
  GI50: 294 nM
RXF 393 renal
  GI50: 75.2 nM
  TGI: 600 nM
UACC-62 melanoma
  GI50: 95.9 nM
  TGI: 704 nM
COLO 205 colon
  GI50: 287 nM
  TGI: 1910 nM
MCF7 breast
  GI50: 772 nM
  TGI: > 100000 nM
HT29 colon
  GI50: 174 nM
  TGI: 8570 nM
M14 melanoma
  GI50: 44.4 nM
  TGI: 2070 nM
MOLT-4 leukemia
  GI50: 155 nM
NCI-H23 lung
  GI50: 439 nM
  TGI: > 100000 nM
PC-3 prostate
  GI50: 330 nM
  TGI: > 21800 nM
OVCAR-3 ovarian
  GI50: 401 nM
